From ChEMBL document CHEMBL2057096, “Discovery of novel 1,2,4-thiadiazole derivatives as potent, orally active agonists of sphingosine 1-phosphate receptor subtype 1 (S1P(1))” (J Med Chem, 2012)
In brackets after ≈: the same amount, converted by molar mass. Activity calls are given as the source filed them. The rule behind the calls is not given here.

How the values were obtained:
[1] = target: Sphingosine 1-phosphate receptor 1 (Homo sapiens, UniProt P21453); test: Agonist activity against S1P1 receptor by cell based FRET assay; format: functional
[2] = target: Sphingosine 1-phosphate receptor 3 (Homo sapiens, UniProt Q99500); test: Agonist activity against S1P3 receptor by cell based FRET assay; format: functional
[3] = Ratio of drug level in brain to blood in C57BL/6 mouse at 2 mg/kg, ip after 4 hrs; format: ADME, organism-based; design: dose 2 mg/kg, route intraperitoneal
[4] = Oral bioavailability in Sprague-Dawley rat at 2 mg/kg; format: ADME, organism-based; settings: in vivo
[5] = Percentage unbound in human plasma; format: ADME, cell-free
Mus musculus [6] = test: Decrease in lymphocyte count in mouse acute lymphopenia model at 1 mg/kg, po after 24 hrs by flow cytometry relative to base line; format: functional; design: scale not given: the % may be the effect or the level left
[7] = Half life in Sprague-Dawley rat at 1 mg/kg, iv and 2 mg/kg, po; format: ADME, organism-based; settings: in vivo
Cytochrome P450 1A2 = target: T1, Cytochrome P450 1A2 (Homo sapiens, UniProt P05177); test: Inhibition of CYP1A2; format: ADME
T1 sequence (P05177 whole entry): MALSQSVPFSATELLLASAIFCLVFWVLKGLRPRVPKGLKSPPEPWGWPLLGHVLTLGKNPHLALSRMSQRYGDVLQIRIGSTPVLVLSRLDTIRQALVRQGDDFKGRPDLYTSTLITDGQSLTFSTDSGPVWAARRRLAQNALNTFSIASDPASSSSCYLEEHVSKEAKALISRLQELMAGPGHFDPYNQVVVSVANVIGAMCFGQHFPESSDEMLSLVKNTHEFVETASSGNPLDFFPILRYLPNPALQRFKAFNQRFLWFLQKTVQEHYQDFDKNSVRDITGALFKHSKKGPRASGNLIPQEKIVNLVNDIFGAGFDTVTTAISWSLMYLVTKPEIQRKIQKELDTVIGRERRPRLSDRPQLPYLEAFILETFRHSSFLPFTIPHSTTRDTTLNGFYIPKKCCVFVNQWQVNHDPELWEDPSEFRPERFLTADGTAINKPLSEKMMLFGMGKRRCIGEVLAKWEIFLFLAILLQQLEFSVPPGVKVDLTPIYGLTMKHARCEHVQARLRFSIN

Homo sapiens = species: Homo sapiens; test: Selectivity ratio of EC50 for S1P3 receptor to EC50 for S1P1 receptor
[8] = Half life in mouse; format: ADME, organism-based; settings: in vivo
Cytochrome P450 2C19 = Cytochrome P450 2C19 (Homo sapiens, UniProt P33261); test: Inhibition of CYP2C19; format: ADME
[9] = Ratio of drug level in brain to blood in C57BL/6 mouse at 2 mg/kg, ip after 1 hr; format: ADME, organism-based; design: dose 2 mg/kg, route intraperitoneal
Cytochrome P450 2C9 = Cytochrome P450 2C9 (Homo sapiens, UniProt P11712); test: Inhibition of CYP2C9; format: ADME
Cytochrome P450 3A4 = Cytochrome P450 3A4 (Homo sapiens, UniProt P08684); test: Inhibition of CYP3A4; format: ADME
Cytochrome P450 2D6 = Cytochrome P450 2D6 (Homo sapiens, UniProt P10635); test: Inhibition of CYP2D6; format: ADME
[10] = Oral bioavailability in mouse; format: ADME, organism-based; settings: in vivo
Mus musculus [11] = test: Decrease in lymphocyte count in mouse acute lymphopenia model at 1 mg/kg, po after 4 hrs by flow cytometry relative to base line; format: functional; design: scale not given: the % may be the effect or the level left
[12] = Stability of the compound assessed as glutathione adduct formation; format: physicochemical
Rattus norvegicus [13] = species: Rattus norvegicus; test: Decrease in lymphocyte count in rat; format: functional, organism-based
Rattus norvegicus [14] = species: Rattus norvegicus; test: Decrease in lymphocyte count in rat after 60 hrs; format: functional, organism-based
Rattus norvegicus [15] = test: Antiinflammatory activity in rat assessed as decrease in lymphocyte count at 1 mg/kg, po qd for 7 days relative to base line; format: functional; design: scale not given: the % may be the effect or the level left
Rattus norvegicus [16] = test: Antiinflammatory activity in rat assessed as decrease in lymphocyte count at 1 mg/kg, po qd for 7 days measured after 3 days of last post dose relative to control; format: functional; design: scale not given: the % may be the effect or the level left
Mus musculus [17] = test: Antiinflammatory activity in C57BL/6 mouse EAE model assessed as decrease in clinical symptoms at 1 mg/kg, po administered qd after 10 days post immunization; format: functional, organism-based; design: dose 1 mg/kg
[18] = Solubility of the compound; format: physicochemical
[19] = Permeability of the compound; format: ADME; settings: not told; read-out: permeability
[20] = AUC (0 to 24 hrs) in mouse; format: ADME, organism-based; design: time < 24 hr; settings: plasma
[21] = Percentage unbound in rat plasma; format: ADME, cell-free

Sequence of Sphingosine 1-phosphate receptor 3 (Q99500 whole entry): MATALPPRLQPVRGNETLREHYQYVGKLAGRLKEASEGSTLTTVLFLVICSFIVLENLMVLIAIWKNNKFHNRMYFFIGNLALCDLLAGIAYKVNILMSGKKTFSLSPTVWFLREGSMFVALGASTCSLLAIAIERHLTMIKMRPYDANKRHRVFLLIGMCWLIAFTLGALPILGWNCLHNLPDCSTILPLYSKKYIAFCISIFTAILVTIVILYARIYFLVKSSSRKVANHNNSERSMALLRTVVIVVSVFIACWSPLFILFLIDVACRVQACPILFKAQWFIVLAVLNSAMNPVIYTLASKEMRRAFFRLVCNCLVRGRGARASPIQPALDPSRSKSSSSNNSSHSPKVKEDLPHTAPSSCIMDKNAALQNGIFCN
Sequence of Cytochrome P450 2C19 (P33261 whole entry): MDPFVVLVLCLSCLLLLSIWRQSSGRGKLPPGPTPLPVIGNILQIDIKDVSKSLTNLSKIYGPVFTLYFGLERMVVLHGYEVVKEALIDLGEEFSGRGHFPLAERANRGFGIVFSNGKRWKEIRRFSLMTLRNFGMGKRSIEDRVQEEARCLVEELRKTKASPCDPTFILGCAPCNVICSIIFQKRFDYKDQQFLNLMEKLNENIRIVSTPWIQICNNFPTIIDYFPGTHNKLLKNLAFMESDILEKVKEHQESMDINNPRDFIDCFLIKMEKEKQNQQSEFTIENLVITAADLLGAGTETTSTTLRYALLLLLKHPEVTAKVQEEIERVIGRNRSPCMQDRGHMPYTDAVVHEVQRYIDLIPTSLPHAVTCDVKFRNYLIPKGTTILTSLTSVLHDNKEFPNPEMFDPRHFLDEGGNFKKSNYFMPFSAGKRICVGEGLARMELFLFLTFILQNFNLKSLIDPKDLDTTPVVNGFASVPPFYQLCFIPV
Sequence of Cytochrome P450 3A4 (P08684 whole entry): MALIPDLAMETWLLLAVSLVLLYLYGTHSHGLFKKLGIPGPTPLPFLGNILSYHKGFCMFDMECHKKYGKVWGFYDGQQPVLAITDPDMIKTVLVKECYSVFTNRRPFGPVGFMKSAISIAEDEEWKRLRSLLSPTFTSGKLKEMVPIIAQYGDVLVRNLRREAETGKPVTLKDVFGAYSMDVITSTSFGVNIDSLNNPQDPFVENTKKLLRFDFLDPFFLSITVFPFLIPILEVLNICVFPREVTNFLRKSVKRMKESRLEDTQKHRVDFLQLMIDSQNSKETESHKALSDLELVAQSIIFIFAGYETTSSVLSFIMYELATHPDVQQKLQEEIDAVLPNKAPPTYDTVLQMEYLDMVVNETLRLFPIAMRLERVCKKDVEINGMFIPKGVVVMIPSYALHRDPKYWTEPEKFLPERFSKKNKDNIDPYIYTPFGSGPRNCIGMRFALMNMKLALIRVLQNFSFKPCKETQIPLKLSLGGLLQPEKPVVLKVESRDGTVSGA
Sequence of Cytochrome P450 2D6 (P10635 whole entry): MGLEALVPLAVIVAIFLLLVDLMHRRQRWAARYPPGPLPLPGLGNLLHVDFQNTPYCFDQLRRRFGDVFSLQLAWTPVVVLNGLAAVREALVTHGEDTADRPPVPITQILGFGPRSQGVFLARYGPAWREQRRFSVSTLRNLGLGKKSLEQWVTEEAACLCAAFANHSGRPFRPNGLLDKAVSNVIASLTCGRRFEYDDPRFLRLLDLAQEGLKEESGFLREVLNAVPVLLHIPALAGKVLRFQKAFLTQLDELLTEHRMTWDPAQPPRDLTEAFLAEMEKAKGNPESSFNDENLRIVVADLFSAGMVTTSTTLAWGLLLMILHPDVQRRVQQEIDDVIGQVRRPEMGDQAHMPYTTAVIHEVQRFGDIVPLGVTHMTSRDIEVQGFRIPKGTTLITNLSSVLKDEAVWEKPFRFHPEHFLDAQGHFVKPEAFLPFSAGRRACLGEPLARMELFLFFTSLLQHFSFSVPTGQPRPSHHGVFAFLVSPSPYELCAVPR
Sequence of Cytochrome P450 2C9 (P11712 whole entry): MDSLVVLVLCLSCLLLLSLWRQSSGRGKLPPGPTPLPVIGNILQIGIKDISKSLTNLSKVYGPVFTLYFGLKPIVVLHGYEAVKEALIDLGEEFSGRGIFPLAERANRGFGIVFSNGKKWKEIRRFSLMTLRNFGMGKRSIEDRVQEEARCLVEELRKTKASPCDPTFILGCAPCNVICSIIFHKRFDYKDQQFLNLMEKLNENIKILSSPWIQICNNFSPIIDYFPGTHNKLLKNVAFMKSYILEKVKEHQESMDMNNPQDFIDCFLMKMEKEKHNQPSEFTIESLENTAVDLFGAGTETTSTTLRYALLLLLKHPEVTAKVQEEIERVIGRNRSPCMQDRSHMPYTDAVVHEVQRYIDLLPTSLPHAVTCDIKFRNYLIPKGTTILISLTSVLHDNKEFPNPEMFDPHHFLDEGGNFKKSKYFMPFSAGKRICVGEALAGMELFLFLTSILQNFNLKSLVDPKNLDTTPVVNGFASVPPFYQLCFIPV
Sequence of Sphingosine 1-phosphate receptor 1 (P21453 whole entry): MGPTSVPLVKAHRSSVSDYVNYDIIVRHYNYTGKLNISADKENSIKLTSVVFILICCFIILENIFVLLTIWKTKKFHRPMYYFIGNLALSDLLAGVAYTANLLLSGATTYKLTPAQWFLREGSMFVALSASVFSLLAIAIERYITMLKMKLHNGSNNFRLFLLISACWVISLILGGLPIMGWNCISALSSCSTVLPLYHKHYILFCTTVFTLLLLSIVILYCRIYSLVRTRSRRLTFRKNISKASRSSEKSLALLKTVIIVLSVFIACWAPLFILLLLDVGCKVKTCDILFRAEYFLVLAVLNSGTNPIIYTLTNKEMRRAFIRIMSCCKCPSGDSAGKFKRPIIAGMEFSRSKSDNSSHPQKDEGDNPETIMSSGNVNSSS

| SMILES | EC50 [1] | EC50 [2] | Kp at 4 h [3] | bioavailability [4] | fraction unbound [5] | Activity (Mus musculus [6]) | half-life [7] | IC50 (Cytochrome P450 1A2) | Ratio EC50 (Homo sapiens) | half-life [8] | IC50 (Cytochrome P450 2C19) | Kp at 1 h [9] | IC50 (Cytochrome P450 2C9) | IC50 (Cytochrome P450 3A4) | IC50 (Cytochrome P450 2D6) | bioavailability [10] | Activity (Mus musculus [11]) | Stability [12] | solubility [18] | Papp [19] | other results |
| --- | --- | --- | --- | --- | --- | --- | --- | --- | --- | --- | --- | --- | --- | --- | --- | --- | --- | --- | --- | --- | --- |
| CCc1c(CCN2CCC(C(=O)O)CC2)cccc1-c1nsc(-c2ccc(OC(C)C)c(Cl)c2)n1 | 0.000158 µM | > 3.16 µM | 1.48 | 70% | 0.0045 | 40% | 27.7 h | > 10 µM | > 1000 | 15.6 h | > 10 µM | 0.52 | > 10 µM | > 10 µM | > 10 µM | 40% | 16% | Stable |  |  |  |
| CCc1c(CCN2CCC(C(=O)O)CC2)cccc1-c1nsc(-c2ccc(CC(C)C)c(C#N)c2)n1 | 0.000794 µM | > 3.16 µM | 0.65 | 50% | 0.0064 | 72% | 6.2 h | > 10 µM | > 1000 | 5.3 h | > 10 µM | 0.23 | > 10 µM | > 10 µM | > 10 µM | 45% | 23% | Stable |  |  | Activity (Rattus norvegicus [13]): Dose-dependent effect; IC50 (Rattus norvegicus [13]): 0.012 µg/mL (≈ 0.0239 µM); Activity (Rattus norvegicus [14]): inactive; Activity (Rattus norvegicus [15]): 20%; Activity (Rattus norvegicus [16]): 70% |
| CCc1c(CCCC(=O)O)cccc1-c1nnc(-c2ccc(OC(C)C)c(C#N)c2)s1 | 0.00126 µM | > 10 µM | 0.19 |  | 0.0051 | 43.6% |  | > 10 µM |  | 3.8 h |  | 0.21 | > 10 µM | > 10 µM | > 10 µM | 100% | 37.9% |  | 256 µg/mL (≈ 588 µM) | 23 ×10⁻⁶ cm/s | Activity (Mus musculus [17]): inactive; AUC(0-t) at 24 h [20]: 5940 ng·h/mL |
| CCc1c(CCCC(=O)O)cccc1-c1noc(-c2ccc(OC(C)C)c(C#N)c2)n1 | 0.0002 µM | > 10 µM | 0.68 |  |  |  |  | > 10 µM |  |  | > 10 µM | 0.53 | > 10 µM | > 10 µM | > 10 µM |  |  |  | 46 µg/mL (≈ 110 µM) | 34.5 ×10⁻⁶ cm/s | fraction unbound [21]: 0.0004 |
